Laboratory results reported in ChEMBL document CHEMBL3992492, “Sulfoximines from a Medicinal Chemist's Perspective: Physicochemical and in vitro Parameters Relevant for Drug Discovery” (Eur J Med Chem, 2017).
Values after ≈ are worked out from the molar mass of the structure shown.

How the values were obtained:
in vitro [1] = conditions: PAMPA, pH 7.4
Description: Apparent permeability of the compound at pH 7.4 by PAMPA

in vitro [2] = conditions: human, liver microsomes
Description: Half life in human liver microsomes at 1 uM in presence of NADPH by LC-MS/MS method

physchem [3] = conditions: octanol/water, pH 10
[4] = Drug degradation in pH <1 HCl after 7 days by HPLC method
[5] = Apparent partition coefficient, log P of the compound in n-octanol/aqueous mixture at pH 12 by potentiometric titration method; assay type: physicochemical; conditions: octanol/water
[6] = Drug degradation in pH >10 NH3 after 7 days by HPLC method
[7] = Dissociation constant, pKb of the compound in aqueous/organic mixture at pH 2 to 12 by potentiometric titration method; assay type: physicochemical; conditions: buffer
in vitro [8] = conditions: human, liver microsomes; remark: listed apart in the source
physchem [9] = conditions: aqueous
[10] = octanol/water, pH 7.4
physchem [11] = conditions: acetonitrile/water mixture
Description: Solubility of the compound in acetonitrile/water mixture at 10 mM measured after 24 by HPLC-UV method

physchem [12] = conditions: n-octanol/aqueous mixture, pH 2
physchem [13] = conditions: n-octanol/aqueous mixture, pH 7.4
physchem [14] = conditions: aqueous/organic mixture, pH 2
[15] = Dissociation constant, pKa of the compound; assay type: physicochemical
[16] = Apparent partition coefficient, log P of the compound in n-octanol/aqueous mixture at pH 3 by potentiometric titration method; assay type: physicochemical
[17] = Dissociation constant, pKb of the compound in aqueous phase at pH 2 to 12 by potentiometric titration method; assay type: physicochemical; conditions: buffer

Structure (SMILES) | Papp (in vitro [1]) [×10⁻⁶ cm/s] | half-life at 1 µM (in vitro [2]) [h] | logP (physchem [3]) | logP [5] | pKb [7] | hepatic extraction ratio at 1 µM (in vitro [8]) | solubility thermodynamic (physchem [9]) [µg/mL] | logD [10] | solubility at 10000 µM (physchem [11]) [µg/mL] | logD (physchem [12]) | logD (physchem [13]) | pKa (physchem [14]) | pKa [15] | logD [16] | pKb [17] | Drug degradation [4] [%] | Drug degradation [6] [%]
CS(C)(=O)=N[C@H]1CC[C@@H](C(F)(F)F)CC1 | 7.8 | > 2.17 | – | 2.4 | 4.2 | < 0.23 | 300 (≈ 1230 µM) | 2.4 | – | – | – | – | – | – | – | – | –
CS(=N)(=O)c1ccccc1 (configuration not stated) | – | – | – | – | – | – | – | – | – | – | – | – | 2.7 | – | – | – | –
O=S1(c2ccc(C(F)(F)F)cc2)=NCCCC1 (configuration not stated) | 9.2 | > 2.17 | 0.2 | – | 3.8 | < 0.23 | 4700 (≈ 17900 µM) | – | > 59 | – | – | – | – | – | – | < 10 | 34
CS(C)(=N)=Nc1ccc(C(F)(F)F)cc1 | 5.6 | > 2.17 | -0.5 | 1.8 | 4 | < 0.23 | 8400 (≈ 35600 µM) | 1.8 | > 51 | – | – | – | – | – | – | – | –
O=S1(=N[C@H]2CC[C@@H](C(F)(F)F)CC2)CCCCC1 | 10 | 0.867 | – | 3.5 | 5 | 0.43 | < 50 | 3.5 | – | – | – | – | – | – | – | – | –
N=S1(=Nc2ccc(C(F)(F)F)cc2)CCCCC1 | 7.3 | 1.83 | 1.3 | – | 4 | 0.25 | 500 (≈ 1810 µM) | – | 44 (≈ 159 µM) | – | – | – | – | – | – | 13 | < 10
CS(=N)(=O)c1ccc(Cl)cc1 (configuration not stated) | – | – | – | – | – | – | – | – | – | – | – | – | 2.3 | – | – | – | –
O=S1(=O)CCNCC1 | – | – | – | – | – | – | – | – | – | – | – | – | – | – | 5.4 | – | –

Further lines, with some results ahead:

Papp (in vitro [1]) [×10⁻⁶ cm/s] | half-life at 1 µM (in vitro [2]) [h] | logP (physchem [3]) | logP [5] | pKb [7] | hepatic extraction ratio at 1 µM (in vitro [8]) | solubility thermodynamic (physchem [9]) [µg/mL] | logD [10] | solubility at 10000 µM (physchem [11]) [µg/mL] | logD (physchem [12]) | logD (physchem [13]) | pKa (physchem [14]) | pKa [15] | logD [16] | pKb [17] | Structure (SMILES) | Drug degradation [4] [%] | Drug degradation [6] [%]
5.7 | 0.783 | -0.5 | 0.9 | 2.4 | 0.45 | 6900 (≈ 29000 µM) | 0.9 | – | – | – | – | – | – | – | CNS(=N)(=O)c1ccc(C(F)(F)F)cc1 (configuration not stated) | 10 | < 10
4.1 | > 2.17 | – | – | – | < 0.23 | 800 (≈ 3550 µM) | – | > 48 | 1.4 | 1.4 | 9.4 | – | – | – | NS(=O)(=O)c1ccc(C(F)(F)F)cc1 | – | –
0.04 | > 2.17 | – | – | – | < 0.23 | 11100 (≈ 39300 µM) | – | 55 (≈ 195 µM) | 1.9 | -0.3 | 4.2 | – | – | – | CS(=O)(=O)NC(=O)Nc1ccc(C(F)(F)F)cc1 | – | –
6.9 | > 2.17 | – | 2 | 2.5 | < 0.23 | 9100 (≈ 40800 µM) | 2 | > 50 | – | – | – | – | – | – | CS(=N)(=O)c1ccc(C(F)(F)F)cc1 (configuration not stated) | – | –
0.01 | > 2.17 | – | – | – | < 0.23 | > 20000 | – | > 62 | 1.7 | -1 | 3.2 | – | – | – | CS(=O)(=O)NC(=O)c1ccc(C(F)(F)F)cc1 | – | –
5.1 | > 2.17 | – | – | – | < 0.23 | 600 (≈ 2510 µM) | – | 47 (≈ 196 µM) | – | 1.9 | 8 | – | 2 | – | CS(=O)(=O)Nc1ccc(C(F)(F)F)cc1 | – | –
6.3 | > 2.17 | – | – | – | < 0.23 | 900 (≈ 3760 µM) | – | > 49 | 2.3 | 2.3 | 10.7 | – | – | – | CNS(=O)(=O)c1ccc(C(F)(F)F)cc1 | – | –
